Experimental findings from patent US8524659B2, “RNA virus-derived peptides with modified side chains” (National Taiwan University, priority 2011, dated 2013) are described below.

Series [1] has as its system Jurkat cells. Put plainly: MTT assay for determining cell survival. It counts as cell-based. The note with it: 7 μM and 30 μM peptide, 4 hours, 37° C., FIG. 4. Here is the method: The cells were grown to appropriate cell density (roughly 2×10^6 cells/mL) and transferred into new media one day before performing the experiment. For each assay, 8×10^5 cells as determined by a hemocytometer were added into an eppendorf. The cells were centrifuged at 2200 rpm for 5 minutes. The supernatant was removed by suction. Then 200 μL of 7 μM or 30 μM XaaTat peptide was added. The cells were incubated for 4 hours at 37° C. and then centrifuged at 2200 rpm for 5 minutes. The cells were washed with RPMI medium twice, and then 200 μL of 0.5 mg/mL MTT in serum free RPMI buffer was added and incubated at 37° C. for 3.5 hours. The cells were then centrifuged at 4000 rpm for 5 minutes. The supernatant was then transferred to two wells (100 μL each) of a 96-well plate. Then 400 μL DMSO was added to the cells in the assaying eppendorf. The eppendorf was then vortexed for 5 minutes to solubilize the MTT purple crystals, and centrifuged at 2200 rpm for 5 minutes. Then the supernatant was transferred to 4 wells (100 μL each) of the 96-well plate for analysis. The absorbance at 570 was determined for each well using a microplate reader with the absorbance at 655 nm used for background correction. A standard curve was generated using different number of cells (8×10^5, 4×10^5 and 2×10^5). The absorbance for each sample for each peptide at each concentration was then correlated to the number of live cells based on the standard curve.
(In general: Formazan colour is commonly taken as a measure of viable cells.)

For series [2], the target named is HIV TAR RNA. Put plainly: Fluorescence anisotropy binding of Tat peptides to fluorescein-labeled TAR RNA. The procedure:
The binding affinity of XaaTat peptides (Xaa=Agh, Arg and Agb) for TAR RNA was measured by fluorescence anisotropy using a Varian Cary Eclipse fluorescence spectrophotometer. The anisotropy (r) was calculated using the following equation: […]
where Ivv, Ivh, Ihh, Ihv are the fluorescence intensities with the excitation polarizer and emission polarizer is oriented perpendicular (Ivh and Ihv) and parallel (Ivv and Ihh) to the direction of the polarized excitation. The fluorescein-labeled TAR RNA (F-TAR-RNA) was excited at 490 nm and the polarized emissions were monitored at 512 nm. The slits were set at 10 nm for both excitation and emission. The integration time was 20 seconds. All data were measured in a Sub-Micro (Starna Cell, Inc.) with a starting volume of 160 μL. Each addition (1 μL) of XaaTat was equilibrated for two minutes before the fluorescence signal was recorded. All experiments were performed at room temperature in TKT buffer (TKT: 50 mM Tris-HCl, pH 7.4, 20 mM KCl and 0.02% Tween20). The initial concentration of F-TAR-RNA was 25 nM. The TKT solution and peptide stock solution were both equilibrated at room temperature more than 20 minutes before the experiment. The experiment was repeated three times independently. For every single point, three measurements were performed and the average value was used for deriving the apparent (apparent KD). The apparent for the peptide-RNA complex was derived by fitting the data assuming a 1:1 peptide-RNA stoichiometry. The fitting was performed using Kaleidagraph 3.52. (Synergy Software, CA).
In general terms: Polarisation of emitted light reports the rotation of a fluorescent probe.

Series [3] deals with HIV TAR RNA. As to the kind of experiment: Gel shift assay (EMSA) with fluorescein-labeled TAR RNA in the presence of poly(dI-dC). It counts as binding. The procedure:
The fluorescein-labeled TAR RNA (F-TAR-RNA) was purchased from Sigma. F-TAR-RNA was dissolved in diethyl pyrocarbonate treated H2O to give a 50 μM solution. Binding assays were performed at room temperature. Peptide and RNA were incubated in pH 7.4 buffer (10 μL) containing Tris-HCl (50 mM), KCl (50 mM), poly-dIdC (10 μg/mL), 2% glycerol, and Triton X-100 (0.05%). The F-TAR-RNA concentration was 100 nM. The samples were analyzed by loading into 12% native polyacrylamide gels in […] and electrophoresis was performed with 140 V at room temperature. Dried gels were scanned by the Typhoon TRIO+ Variable Mode Imager. Bands corresponding to the free and bound RNA were quantified using ImageQuant software. The apparent dissociation constants were globally derived from the quantified data assuming a 1:1 binding stoichiometry.

For `CC(=O)N[C@@H](Cc1ccc(O)cc1)C(=O)NCC(=O)N[C@@H](CCNC(=N)N)C(=O)N[C@@H](CCCCN)C(=O)N[C@@H](CCCCN)C(=O)N[C@@H](CCNC(=N)N)C(=O)N[C@@H](CCNC(=N)N)C(=O)N[C@@H](CCC(N)=O)C(=O)N[C@@H](CCNC(=N)N)C(=O)N[C@@H](CCNC(=N)N)C(=O)N[C@@H](CCNC(=N)N)C(N)=O` [AgbTat, Ac-Tyr-Gly-Agb-Lys-Lys-Agb-Agb-Gln-Agb-Agb-Agb-NH2], the “Cytotoxicity (cell survival)” value in series [1] was “minimal cytotoxicity”.

Take `CC(=O)N[C@@H](Cc1ccc(O)cc1)C(=O)NCC(=O)N[C@@H](CCCCNC(=N)N)C(=O)N[C@@H](CCCCN)C(=O)N[C@@H](CCCCN)C(=O)N[C@@H](CCCCNC(=N)N)C(=O)N[C@@H](CCCCNC(=N)N)C(=O)N[C@@H](CCC(N)=O)C(=O)N[C@@H](CCCCNC(=N)N)C(=O)N[C@@H](CCCCNC(=N)N)C(=O)N[C@@H](CCCCNC(=N)N)C(N)=O` [AghTat, Ac-Tyr-Gly-Agh-Lys-Lys-Agh-Agh-Gln-Agh-Agh-Agh-NH2]: the “Cytotoxicity (cell survival)” value in series [1] is “minimal cytotoxicity”.

Consider `CC(=O)N[C@@H](Cc1ccc(O)cc1)C(=O)NCC(=O)N[C@@H](CCCNC(=N)N)C(=O)N[C@@H](CCCCN)C(=O)N[C@@H](CCCCN)C(=O)N[C@@H](CCCNC(=N)N)C(=O)N[C@@H](CCCNC(=N)N)C(=O)N[C@@H](CCC(N)=O)C(=O)N[C@@H](CCCNC(=N)N)C(=O)N[C@@H](CCCNC(=N)N)C(=O)N[C@@H](CCCNC(=N)N)C(N)=O` [ArgTat, Ac-Tyr-Gly-Arg-Lys-Lys-Arg-Arg-Gln-Arg-Arg-Arg-NH2, reference compound], for which the Kd was found to be 25 ± 3 nM in series [2] (Table 2, read-out: KD, binding affinity of Tat-peptide and TAR RNA by fluorescence anisotropy assay); 25 ± 3 nM in series [2] (fluorescence anisotropy, 25 nM fluorescein-labeled HIV TAR RNA, absence of poly(dI-dC), 1:1 stoichiometry, read-out: Apparent KD HIV TAR RNA); 67 ± 19 nM in series [3] (EMSA, 100 nM fluorescein-labeled HIV TAR RNA, 10 μg/mL poly(dI-dC), 1:1 stoichiometry, read-out: Apparent KD HIV TAR RNA with poly(dI-dC)); 67 ± 19 nM in series [3] (in the presence of 10 μg/mL poly(dI-dC), FIG. 9, read-out: KD of peptide and TAR-RNA by gel shift assay); 67 ± 19 nM in series [3] (in the presence of poly(dI-dC) at 25° C., Table 3, read-out: KD, dissociation constant of Tat-peptide and TAR RNA by gel shift assay). Moreover, the “Cytotoxicity (cell survival)” value in series [1] is reported as “minimal cytotoxicity”. Further, the “Effect of poly(dI-dC) on binding affinity for TAR RNA (specificity)” value in series [3] (comparison of absence and presence of poly(dI-dC), Table 1) is on record as “somewhat affected”.
